Measurements from US11759455B2, “Substituted 1H-imidazo[4,5-b]pyridin-2(3H)-ones and their use as GLUN2B receptor modulators” (JANSSEN PHARMACEUTICA NV, priority 2016, dated 2023).
Like-named read-outs stand apart in the source and are kept apart here.

Target: T1, human GluN1/GluN2B NMDA receptors (Homo sapiens, UniProt Q13224)
T1 construct: expressed in transfected cells
Assay: Cell-based calcium flux (FLIPR) assay on cloned human NR1/NR2B ion channels expressed in mammalian cells (standard and HTS buffer variants);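 further: stable Tet-On inducible cell line, Ca2+ influx triggered by glutamate at about EC40 plus 10 µM glycine, fluorescent dye read-out over 5 min, normalized to control wells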

[1] = standard assay buffer (0.5 mM MgCl2 dye loading; 137 mM NaCl, 4 mM KCl assay buffer), human GluN1/GluN2B cells, read-out: NR2B IC50 (μM) standard assay
[2] = HTS assay buffer (1.5 mM MgCl2 in dye loading buffer; 150 mM NaCl, 3 mM KCl in assay buffer), human GluN1/GluN2B, read-out: NR2B IC50 (μM) HTS assay
[3] = standard assay buffer (0.5 mM MgCl2 in dye loading buffer; 137 mM NaCl, 4 mM KCl in assay buffer), human GluN1/GluN2B, read-out: NR2B IC50 (μM) standard assay

T1 sequence (Q13224 27-1484, other chains not shown): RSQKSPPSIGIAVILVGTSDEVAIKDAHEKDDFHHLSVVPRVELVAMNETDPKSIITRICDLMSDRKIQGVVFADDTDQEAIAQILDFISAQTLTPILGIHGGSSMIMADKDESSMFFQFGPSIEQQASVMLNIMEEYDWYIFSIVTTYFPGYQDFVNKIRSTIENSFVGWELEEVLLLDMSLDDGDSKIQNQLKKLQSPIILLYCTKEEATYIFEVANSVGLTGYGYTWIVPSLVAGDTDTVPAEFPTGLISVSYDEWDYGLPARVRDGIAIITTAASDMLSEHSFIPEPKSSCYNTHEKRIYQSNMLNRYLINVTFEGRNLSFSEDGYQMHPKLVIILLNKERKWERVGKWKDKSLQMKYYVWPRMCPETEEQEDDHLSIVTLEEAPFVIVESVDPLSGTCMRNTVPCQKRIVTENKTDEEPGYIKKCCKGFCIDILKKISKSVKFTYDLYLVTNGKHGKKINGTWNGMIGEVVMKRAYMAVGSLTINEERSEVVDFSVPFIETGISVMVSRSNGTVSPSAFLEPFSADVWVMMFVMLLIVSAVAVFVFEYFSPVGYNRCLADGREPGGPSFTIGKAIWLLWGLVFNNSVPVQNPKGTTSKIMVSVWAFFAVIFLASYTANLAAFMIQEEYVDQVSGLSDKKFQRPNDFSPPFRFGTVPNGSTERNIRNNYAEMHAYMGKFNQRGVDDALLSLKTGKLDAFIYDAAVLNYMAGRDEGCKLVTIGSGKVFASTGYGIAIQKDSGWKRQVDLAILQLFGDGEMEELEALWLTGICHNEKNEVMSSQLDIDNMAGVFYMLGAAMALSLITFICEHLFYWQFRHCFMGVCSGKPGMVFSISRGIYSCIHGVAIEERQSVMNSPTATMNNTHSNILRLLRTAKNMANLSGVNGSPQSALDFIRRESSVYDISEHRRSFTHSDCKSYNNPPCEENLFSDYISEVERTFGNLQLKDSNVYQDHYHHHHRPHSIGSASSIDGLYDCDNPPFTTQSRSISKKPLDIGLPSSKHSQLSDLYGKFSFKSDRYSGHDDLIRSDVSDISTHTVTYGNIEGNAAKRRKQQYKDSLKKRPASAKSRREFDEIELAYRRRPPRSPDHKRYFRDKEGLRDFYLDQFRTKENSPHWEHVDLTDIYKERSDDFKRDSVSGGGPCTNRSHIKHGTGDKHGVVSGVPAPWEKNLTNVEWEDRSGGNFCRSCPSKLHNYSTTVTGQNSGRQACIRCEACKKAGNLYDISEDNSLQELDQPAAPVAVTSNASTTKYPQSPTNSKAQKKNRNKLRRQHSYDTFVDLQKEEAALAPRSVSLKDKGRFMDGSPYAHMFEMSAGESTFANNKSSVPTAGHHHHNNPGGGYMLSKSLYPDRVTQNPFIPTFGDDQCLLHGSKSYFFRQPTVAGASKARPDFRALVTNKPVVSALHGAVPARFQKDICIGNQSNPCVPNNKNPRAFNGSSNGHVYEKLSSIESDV

Compound: O=c1[nH]c2ncc(-c3cccc(C(F)(F)F)c3)cc2n1CCN1CC(C(F)(F)F)C1 [Example 166, 1-[2-[3-(Trifluoromethyl)azetidin-1-yl]ethyl]-6-[3-(trifluoromethyl)phenyl]-3H-imidazo[4,5-b]pyridin-2-one]
- IC50 [1]: 3.48 µM

Compound: COc1ccc(Cn2c(=O)[nH]c3ncc(-c4cc(F)cc(F)c4)cc32)cc1 [Example 508, 6-(3,5-Difluorophenyl)-1-[(4-methoxyphenyl)methyl]-3H-imidazo[4,5-b]pyridin-2-one]
- IC50 [2]: 0.463 µM

Compound: CCOC(=O)Cn1c(=O)[nH]c2ncc(-c3cccc(C(F)(F)F)c3)cc21 [Example 134, Ethyl 2-[2-oxo-6-[3-(trifluoromethyl)phenyl]-3H-imidazo[4,5-b]pyridin-1-yl]acetate]
- IC50 [1]: 0.035 µM

Compound: N#Cc1cccc(-c2cnc3[nH]c(=O)n(Cc4ccccc4C#N)c3c2)c1 [Example 486, 2-[[6-(3-Cyanophenyl)-2-oxo-3H-imidazo[4,5-b]pyridin-1-yl]methyl]benzonitrile]
- IC50 [2]: 3.84 µM

Compound: O=C(Cn1c(=O)[nH]c2ncc(-c3ccc(Cl)cc3)cc21)c1cccs1 [Example 459, 6-(4-Chlorophenyl)-1-[2-oxo-2-(2-thienyl)ethyl]-3H-imidazo[4,5-b]pyridin-2-one]
- IC50 [2]: 1.42 µM

Compound: Cn1c(=O)n(CC(=O)N2CC(F)C2)c2cc(-c3cccc(C(F)(F)F)c3)cnc21 [Example 34, 1-[2-(3-Fluoroazetidin-1-yl)-2-oxo-ethyl]-3-methyl-6-[3-(trifluoromethyl)phenyl]imidazo[4,5-b]pyridin-2-one]
- IC50 [1]: 0.065 µM

Compound: Cn1c(=O)n(CC(=O)N2CCC2)c2cc(-c3cccc(C(F)(F)F)c3)cnc21 [Example 408, 1-[2-(Azetidin-1-yl)-2-oxo-ethyl]-3-methyl-6-[3-(trifluoromethyl)phenyl]imidazo[4,5-b]pyridin-2-one]
- IC50 [3]: 0.042 µM

Compound: Cc1c(F)ccc(-c2cnc3c(c2)n(Cc2cnn(C)c2)c(=O)n3C)c1F [Example 572, 6-(2,4-Difluoro-3-methyl-phenyl)-3-methyl-1-[(1-methylpyrazol-4-yl)methyl]imidazo[4,5-b]pyridin-2-one]
- IC50 [3]: 0.15 µM

Compound: Cc1cc(F)ccc1-c1cnc2[nH]c(=O)n(CC(=O)NC3CC3)c2c1 [Example 36, N-Cyclopropyl-2-[6-(4-fluoro-2-methyl-phenyl)-2-oxo-3H-imidazo[4,5-b]pyridin-1-yl]acetamide]
- IC50 [1]: 0.159 µM

Compound: Cc1noc(Cn2c(=O)n(C)c3ncc(-c4ccc(C(F)(F)F)s4)cc32)n1 [Example 569, 3-Methyl-1-[(3-methyl-1,2,4-oxadiazol-5-yl)methyl]-6-[5-(trifluoromethyl)-2-thienyl]imidazo[4,5-b]pyridin-2-one]
- IC50 [3]: 0.412 µM

Compound: O=C(Cn1c(=O)[nH]c2ncc(-c3ccc(F)c(Cl)c3)cc21)c1cccs1 [Example 464, 6-(3-Chloro-4-fluoro-phenyl)-1-[2-oxo-2-(2-thienyl)ethyl]-3H-imidazo[4,5-b]pyridin-2-one]
- IC50 [3]: 0.359 µM

Compound: Cc1c(F)ccc(-c2cnc3c(c2)n(Cc2cn(C)nn2)c(=O)n3C)c1F [Example 574, 6-(2,4-Difluoro-3-methyl-phenyl)-3-methyl-1-[(1-methyltriazol-4-yl)methyl]imidazo[4,5-b]pyridin-2-one]
- IC50 [3]: 0.046 µM

Compound: COc1cccc(-c2cnc3[nH]c(=O)n(CC(=O)c4cccs4)c3c2)c1 [Example 602, 6-(3-Methoxyphenyl)-1-[2-oxo-2-(2-thienyl)ethyl]-3H-imidazo[4,5-b]pyridin-2-one]
- IC50 [3]: 0.204 µM

Compound: O=c1[nH]c2ncc(-c3cccc(C(F)(F)F)c3)cc2n1CCN1CCCC1 [Example 146, 1-(2-Pyrrolidin-1-ylethyl)-6-[3-(trifluoromethyl)phenyl]-3H-imidazo[4,5-b]pyridin-2-one]
- IC50 [1]: 0.506 µM

Compound: O=c1[nH]c2ncc(-c3cccc(C(F)(F)F)c3)cc2n1Cc1ccc(C(F)(F)F)cc1 [Example 219, 6-[3-(Trifluoromethyl)phenyl]-1-[[4-(trifluoromethyl)phenyl]methyl]-3H-imidazo[4,5-b]pyridin-2-one]
- IC50 [1]: > 10 µM
